Results on three compounds are retold here after ChEMBL document CHEMBL1149317, “Synthesis and in vitro antifolate activity of rotationally restricted aminopterin and methotrexate analogues” (J Med Chem, 2004).

One assay has as its target T1, Dihydrofolate reductase (Homo sapiens, UniProt P00374).
T1 sequence (P00374 whole entry): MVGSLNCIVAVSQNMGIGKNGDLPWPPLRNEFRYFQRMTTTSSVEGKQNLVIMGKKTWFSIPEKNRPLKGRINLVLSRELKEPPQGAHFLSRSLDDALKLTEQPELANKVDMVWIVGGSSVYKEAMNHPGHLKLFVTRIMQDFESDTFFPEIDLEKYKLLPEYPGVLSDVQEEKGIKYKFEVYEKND
Briefly: Inhibition of human DHFR.

The target in assay [1] is T2, Reduced folate transporter (Homo sapiens, UniProt P41440).
T2 sequence (P41440 whole entry): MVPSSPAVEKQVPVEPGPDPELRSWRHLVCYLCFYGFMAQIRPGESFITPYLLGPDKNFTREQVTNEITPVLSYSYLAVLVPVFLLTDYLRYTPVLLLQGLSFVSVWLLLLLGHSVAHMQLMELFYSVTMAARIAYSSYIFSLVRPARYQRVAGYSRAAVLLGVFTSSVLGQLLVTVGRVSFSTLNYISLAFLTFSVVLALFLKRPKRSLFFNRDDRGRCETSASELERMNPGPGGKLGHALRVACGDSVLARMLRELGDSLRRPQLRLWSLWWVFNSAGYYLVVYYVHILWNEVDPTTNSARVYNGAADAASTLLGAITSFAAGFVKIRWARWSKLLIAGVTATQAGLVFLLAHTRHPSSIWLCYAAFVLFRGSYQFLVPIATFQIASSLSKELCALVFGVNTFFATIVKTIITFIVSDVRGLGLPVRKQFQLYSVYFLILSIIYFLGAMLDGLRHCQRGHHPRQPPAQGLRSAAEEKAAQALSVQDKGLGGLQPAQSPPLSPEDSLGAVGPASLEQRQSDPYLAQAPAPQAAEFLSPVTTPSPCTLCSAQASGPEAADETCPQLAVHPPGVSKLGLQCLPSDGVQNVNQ
Briefly: Inhibition of RFC-mediated [3H]MTX influx into human CCRF-CEM cells. Type of assay: cell-based.

The subject of another assay is CCRF-CEM. Briefly: Growth inhibition of human CCRF-CEM cells after 72 hrs. Type of assay: functional, cell-based.

Regarding `CN(Cc1cnc2nc(N)nc(N)c2n1)c1ccc2c(c1)CN([C@@H](CCC(=O)O)C(=O)O)C2=O`, the values for the Ki (at Dihydrofolate reductase; in assay [1]) were 2.1 nM and 1100 nM, respectively. Moreover, the IC50 with CCRF-CEM turned out to be 140 nM.

For `Nc1nc(N)c2nc(CNc3ccc4c(c3)CN([C@@H](CCC(=O)O)C(=O)O)C4=O)cnc2n1`, the figures for the Ki (at Dihydrofolate reductase; in assay [1]) were 0.034 nM and 280 nM, respectively. This compound also had an IC50 with CCRF-CEM of 5.1 nM.

Regarding `Nc1nc(N)c2nc(CNc3ccc4c(c3)CN(C(CCC(=O)O)C(=O)O)C4=O)cnc2n1` (racemic), the Ki on Dihydrofolate reductase was determined as 0.077 nM; in assay [1], 530 nM. In the assay with CCRF-CEM, this compound had an IC50 of 8.4 nM.
